Experiments:
[1] = test system: freeze-dried J-TEC Human Reconstituted Epidermis model (stratum corneum sheet); test: Transparency and transmittance of freeze-dried stratum corneum sheet after wetting and drying (FIG. 7); conditions: wetted 30 minutes, dried 18 hours at 34° C., 60% humidity
Procedure: The freeze-dried stratum corneum sheet was wetted for 30 minutes in a 10% glycerin aqueous solution, in an aqueous solution of liquid paraffin (10%), glycerin (10%), POE(60) hydrogenated castor oil (10%), carboxyvinyl polymer (product name: CARBOPOL 981 by Lubrizol Advanced Materials, Inc.) (0.2%) and KOH (0.1%) (liquid paraffin+glycerin+thickener aqueous solution), and in 100% ethanol, and after removing the liquid, drying was performed for 18 hours in an atmosphere at 34° C., 60% humidity, and the sheet was photographed (FIG. 7). […] Since higher transparency of the stratum corneum can be considered a more excellent skin condition, the state of improvement in skin can be evaluated based on the thickness change in the stratum corneum cells or cell layer from moistening in a liquid until drying.

[2] = test system: J-TEC Human Reconstituted Epidermis Model (stratum corneum sheet); test: Change in stratum corneum sheet thickness on wetting and drying (Example 6)
Procedure: (§1) The thickness of a J-TEC Human Reconstituted Epidermis Model (stratum corneum sheet) before the experiment was measured with a caliper (Caliper No. 227-201 by Mitsutoyo Corp.) (one location each) (A). The stratum corneum sheet was further wetted for 30 minutes in a 10% glycerin aqueous solution, an aqueous solution of liquid paraffin (10%), glycerin (10%), POE(60) hydrogenated castor oil (10%), carboxyvinyl polymer (product name: CARBOPOL 981, Lubrizol Advanced Materials, Inc.) (0.2%) and KOH (0.1%) (liquid paraffin+glycerin+thickener aqueous solution), and in 100% ethanol, and immediately upon completion of wetting, the thickness of the stratum corneum sheet was measured with a caliper in the same manner (B).
(§2) It was further dried for 18 hours under conditions of 34° C., 60% humidity and the stratum corneum sheet was measured (C). Using theses results, the thickness change rate (%) of the stratum corneum sheet was measured based on the following formula 1: Thickness change rate (%)=(B−A)×100/A−(C−B)×100/C

[3] = test system: J-TEC Human Reconstituted Epidermis Model (stratum corneum sheet); test: Visual examination of stratum corneum sheet transparency after wetting and drying (Example 6); conditions: visually examined after wetting 30 minutes and drying 18 hours at 34° C., 60% humidity
Procedure: as §1, §2

SMILES: CCO [100% Ethanol, ethanol]
- transparency of freeze-dried stratum corneum sheet moistened and then dried (FIG. 7) [1]: low
- stratum corneum transmittance of freeze-dried sheet moistened and then dried (FIG. 7) ([1]; HR100 spectrophotometer): low
- Thickness change rate (%) ([2]; (B−A)×100/A−(C−B)×100/C, wetted 30 minutes, dried 18 hours at 34° C., 60% humidity, caliper): 3.9%
- change in thickness of stratum corneum sheet when moistened (FIG. 6) ([2]; after wetting with the liquid): no change in thickness
- Transparency [3]: Poor

— US9714936B2, “Method for evaluating cosmetic” (SHISEIDO COMPANY, LTD., priority 2011, dated 2017)
